Measured values: paper PMC10378394 (Current Issues in Molecular Biology, 2023)

Legend:
CHK1(h) = CHK1(h) (Homo sapiens, UniProt O14757); test: Eurofins kinase assay
CaMKIV(h) = CaMKIV(h) (Homo sapiens, UniProt Q16566); test: Eurofins kinase assay
Rsk1(r) = Rsk1(r) (Rattus norvegicus, UniProt Q63531); test: Eurofins kinase assay
BRAF (V600E) = BRAF (V600E) (Homo sapiens, UniProt P15056, V600E); test: Eurofins kinase assay
Met(h) = Met(h) (Homo sapiens, UniProt P08581); test: Eurofins kinase assay
Sequence of Met(h) (P08581 25-1390): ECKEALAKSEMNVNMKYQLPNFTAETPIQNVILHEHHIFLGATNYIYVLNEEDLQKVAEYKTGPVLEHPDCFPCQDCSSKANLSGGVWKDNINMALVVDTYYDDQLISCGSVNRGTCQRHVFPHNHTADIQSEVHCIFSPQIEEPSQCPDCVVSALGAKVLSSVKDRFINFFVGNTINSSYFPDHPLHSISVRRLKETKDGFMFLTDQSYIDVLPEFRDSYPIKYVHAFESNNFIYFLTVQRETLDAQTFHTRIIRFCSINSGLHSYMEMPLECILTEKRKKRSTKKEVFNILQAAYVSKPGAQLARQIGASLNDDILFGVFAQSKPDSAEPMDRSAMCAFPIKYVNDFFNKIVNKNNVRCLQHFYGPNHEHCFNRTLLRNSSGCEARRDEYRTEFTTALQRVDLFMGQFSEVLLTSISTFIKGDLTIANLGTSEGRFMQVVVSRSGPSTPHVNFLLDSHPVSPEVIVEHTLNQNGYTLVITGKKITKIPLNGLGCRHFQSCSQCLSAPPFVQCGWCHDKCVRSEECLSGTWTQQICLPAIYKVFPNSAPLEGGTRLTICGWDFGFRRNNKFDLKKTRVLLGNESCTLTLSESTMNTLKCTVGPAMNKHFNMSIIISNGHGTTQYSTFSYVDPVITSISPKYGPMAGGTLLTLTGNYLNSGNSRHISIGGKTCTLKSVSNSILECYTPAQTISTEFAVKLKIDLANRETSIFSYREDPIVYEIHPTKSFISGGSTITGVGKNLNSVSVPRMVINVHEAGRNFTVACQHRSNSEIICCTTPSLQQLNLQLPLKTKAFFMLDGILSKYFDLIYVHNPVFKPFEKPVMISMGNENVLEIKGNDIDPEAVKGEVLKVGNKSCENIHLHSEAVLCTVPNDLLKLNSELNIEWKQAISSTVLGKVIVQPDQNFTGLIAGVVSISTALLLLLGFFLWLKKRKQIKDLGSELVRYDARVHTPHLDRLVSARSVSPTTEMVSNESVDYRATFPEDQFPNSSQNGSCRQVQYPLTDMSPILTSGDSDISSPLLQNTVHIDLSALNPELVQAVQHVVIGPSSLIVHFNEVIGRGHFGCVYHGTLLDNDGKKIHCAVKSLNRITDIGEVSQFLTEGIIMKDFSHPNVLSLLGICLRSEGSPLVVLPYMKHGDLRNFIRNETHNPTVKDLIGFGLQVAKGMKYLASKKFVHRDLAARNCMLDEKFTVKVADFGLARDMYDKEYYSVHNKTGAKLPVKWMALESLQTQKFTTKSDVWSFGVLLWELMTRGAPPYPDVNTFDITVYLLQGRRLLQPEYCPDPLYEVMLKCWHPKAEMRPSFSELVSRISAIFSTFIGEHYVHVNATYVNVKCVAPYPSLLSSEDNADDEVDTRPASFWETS

PKCα(h) = PKCα(h) (Homo sapiens, UniProt P17252); test: Eurofins kinase assay
BRAF = BRAF (Homo sapiens, UniProt P15056); test: KiNativ cell-based kinase assay in HCT116; design: purchased Eurofins (Poitiers, France)
Sequence of BRAF (P15056 whole entry): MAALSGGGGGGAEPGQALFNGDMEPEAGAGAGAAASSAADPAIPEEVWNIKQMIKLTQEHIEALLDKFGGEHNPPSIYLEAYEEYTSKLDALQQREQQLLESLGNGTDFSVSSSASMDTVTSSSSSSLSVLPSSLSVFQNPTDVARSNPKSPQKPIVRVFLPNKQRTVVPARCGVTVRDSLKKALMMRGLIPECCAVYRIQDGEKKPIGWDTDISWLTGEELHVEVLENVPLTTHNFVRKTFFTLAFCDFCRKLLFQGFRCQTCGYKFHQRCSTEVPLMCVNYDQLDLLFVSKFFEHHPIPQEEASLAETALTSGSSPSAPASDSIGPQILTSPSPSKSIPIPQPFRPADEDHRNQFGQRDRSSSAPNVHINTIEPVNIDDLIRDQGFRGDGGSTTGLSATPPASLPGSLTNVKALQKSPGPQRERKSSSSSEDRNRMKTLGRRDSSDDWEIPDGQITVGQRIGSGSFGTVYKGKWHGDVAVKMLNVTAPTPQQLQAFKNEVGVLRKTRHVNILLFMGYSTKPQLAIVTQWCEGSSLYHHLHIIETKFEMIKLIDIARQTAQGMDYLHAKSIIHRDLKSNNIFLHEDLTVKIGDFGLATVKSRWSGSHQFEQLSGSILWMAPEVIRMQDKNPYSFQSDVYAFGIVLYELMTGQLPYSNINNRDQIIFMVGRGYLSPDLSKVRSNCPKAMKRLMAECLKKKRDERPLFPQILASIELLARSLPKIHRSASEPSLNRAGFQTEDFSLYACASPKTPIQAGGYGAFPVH
Description: (§1) Kinase selectivity profiling in cells was carried out using the KiNativ assay developed by ActivX Biosciences (La Jolla, CA, USA). HCT 116 cells were utilized for the experiment. […] Following the treatment, the cells were lysed, and the lysates were processed for further analysis. Probe labeling was performed using the lysates, and the labeled samples were subjected to LC/MS-MS (Liquid Chromatography/Mass Spectrometry) analysis.

CRAF = CRAF (Homo sapiens, UniProt P04049); test: KiNativ cell-based kinase assay in HCT116; design: purchased Eurofins (Poitiers, France)
Sequence of CRAF (P04049 whole entry): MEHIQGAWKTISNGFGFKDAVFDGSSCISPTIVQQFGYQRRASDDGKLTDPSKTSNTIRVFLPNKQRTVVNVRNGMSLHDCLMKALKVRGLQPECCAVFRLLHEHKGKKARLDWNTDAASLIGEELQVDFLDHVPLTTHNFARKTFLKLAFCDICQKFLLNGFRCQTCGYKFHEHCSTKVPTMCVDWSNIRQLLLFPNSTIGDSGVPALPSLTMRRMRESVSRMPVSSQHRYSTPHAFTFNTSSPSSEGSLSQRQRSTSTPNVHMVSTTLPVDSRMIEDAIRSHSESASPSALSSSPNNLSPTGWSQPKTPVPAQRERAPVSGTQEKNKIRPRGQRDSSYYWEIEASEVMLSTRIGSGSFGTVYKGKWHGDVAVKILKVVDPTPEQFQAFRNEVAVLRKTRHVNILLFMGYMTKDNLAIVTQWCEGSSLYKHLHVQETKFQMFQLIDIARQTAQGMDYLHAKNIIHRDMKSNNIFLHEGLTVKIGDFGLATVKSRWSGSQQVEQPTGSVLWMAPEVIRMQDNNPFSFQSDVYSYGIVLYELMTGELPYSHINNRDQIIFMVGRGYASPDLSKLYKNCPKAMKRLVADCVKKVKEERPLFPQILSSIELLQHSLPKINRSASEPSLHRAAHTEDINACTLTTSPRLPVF
Description: as §1

ARAF = molecular target: T1, ARAF (Homo sapiens, UniProt P10398); test: KiNativ cell-based kinase assay in HCT116; design: purchased Eurofins (Poitiers, France); settings: HCT116, full-length protein; read-out: Binding Affinities in HCT116 (EC50)
T1 sequence (P10398 1-606): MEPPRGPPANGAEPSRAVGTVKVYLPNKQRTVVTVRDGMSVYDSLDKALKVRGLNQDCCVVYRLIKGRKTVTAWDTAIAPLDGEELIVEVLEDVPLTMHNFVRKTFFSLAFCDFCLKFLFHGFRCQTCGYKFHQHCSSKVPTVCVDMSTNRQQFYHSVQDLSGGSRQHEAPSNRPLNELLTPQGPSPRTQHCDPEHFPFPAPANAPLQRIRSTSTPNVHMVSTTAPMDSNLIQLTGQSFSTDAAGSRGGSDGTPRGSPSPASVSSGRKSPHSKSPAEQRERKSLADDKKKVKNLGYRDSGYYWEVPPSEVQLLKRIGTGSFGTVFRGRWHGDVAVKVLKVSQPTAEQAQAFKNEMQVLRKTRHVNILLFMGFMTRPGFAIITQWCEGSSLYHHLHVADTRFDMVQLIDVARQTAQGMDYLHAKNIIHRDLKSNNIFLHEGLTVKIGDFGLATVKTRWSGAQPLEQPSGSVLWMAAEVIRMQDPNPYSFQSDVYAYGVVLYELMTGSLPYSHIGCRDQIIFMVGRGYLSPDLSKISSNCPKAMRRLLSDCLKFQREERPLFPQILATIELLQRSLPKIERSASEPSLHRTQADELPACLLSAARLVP
Description: as §1

CSK(h) = CSK(h) (Homo sapiens, UniProt P41240); test: Eurofins kinase assay
CK1δ(h) = CK1δ(h) (Homo sapiens, UniProt P48730); test: Eurofins kinase assay
PI3Kinase(p110a/p85a)(h) = PI3Kinase(p110a/p85a)(h) (Homo sapiens, UniProt P42336); test: Eurofins kinase assay
HUVECs = test: Tube formation assay; format: cell-based, human
Description: Cell culture plates were coated with Matrigel at a concentration of 7 mg/mL and incubated at 37 °C for 45 min to allow gel formation. Human umbilical vein endothelial cells (HUVECs) were harvested using trypsin and resuspended in endothelial cell growth medium. Following a 5 h incubation period, the formation of endothelial cell tubes was assessed using an inverted photomicroscope (Nikon, Tokyo, Japan). Microphotographs were taken, and the quantification of tube formation, specifically tube length, was performed. To quantify tube formation, measurements were obtained using ImageJ. The long axis of each tube or single cell, as well as groups of adjacent cells, was measured.

MST2(h) = MST2(h) (Homo sapiens, UniProt Q13188); test: Eurofins kinase assay
Sequence of MST2(h) (Q13188 whole entry): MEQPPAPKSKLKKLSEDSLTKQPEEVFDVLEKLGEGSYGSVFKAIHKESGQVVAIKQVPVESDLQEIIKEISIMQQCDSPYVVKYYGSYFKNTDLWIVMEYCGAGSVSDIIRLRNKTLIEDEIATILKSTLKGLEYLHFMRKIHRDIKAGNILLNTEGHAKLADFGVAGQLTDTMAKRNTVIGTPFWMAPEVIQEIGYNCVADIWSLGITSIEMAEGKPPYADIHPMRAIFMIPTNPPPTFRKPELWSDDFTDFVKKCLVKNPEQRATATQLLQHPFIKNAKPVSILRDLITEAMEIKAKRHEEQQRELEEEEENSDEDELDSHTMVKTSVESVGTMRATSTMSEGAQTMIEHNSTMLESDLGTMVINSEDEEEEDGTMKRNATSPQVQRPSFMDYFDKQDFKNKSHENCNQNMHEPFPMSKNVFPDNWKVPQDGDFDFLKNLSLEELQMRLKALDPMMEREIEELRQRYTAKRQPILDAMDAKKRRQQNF

HCT116 (KRAS G13D) = test: Cell proliferation assay (CellTiter-Glo); settings: Homo sapiens, HCT-116, 72 h
Description: To assess cell viability, the CellTiter-Glo Luminescent Cell Viability Assay Reagent (Promega, Fitchburg, WI, USA) was added to each well. The assay measured ATP levels as an indicator of cell viability. All data points were normalized to the control samples treated with dimethyl sulfoxide when determining IC50 values. Statistical calculations and data analysis, including IC50 determination, were performed using GraphPad Prism software.

Rsk3(h) = Rsk3(h) (Homo sapiens, UniProt Q15349); test: Eurofins kinase assay
Sequence of Rsk3(h) (Q15349 whole entry): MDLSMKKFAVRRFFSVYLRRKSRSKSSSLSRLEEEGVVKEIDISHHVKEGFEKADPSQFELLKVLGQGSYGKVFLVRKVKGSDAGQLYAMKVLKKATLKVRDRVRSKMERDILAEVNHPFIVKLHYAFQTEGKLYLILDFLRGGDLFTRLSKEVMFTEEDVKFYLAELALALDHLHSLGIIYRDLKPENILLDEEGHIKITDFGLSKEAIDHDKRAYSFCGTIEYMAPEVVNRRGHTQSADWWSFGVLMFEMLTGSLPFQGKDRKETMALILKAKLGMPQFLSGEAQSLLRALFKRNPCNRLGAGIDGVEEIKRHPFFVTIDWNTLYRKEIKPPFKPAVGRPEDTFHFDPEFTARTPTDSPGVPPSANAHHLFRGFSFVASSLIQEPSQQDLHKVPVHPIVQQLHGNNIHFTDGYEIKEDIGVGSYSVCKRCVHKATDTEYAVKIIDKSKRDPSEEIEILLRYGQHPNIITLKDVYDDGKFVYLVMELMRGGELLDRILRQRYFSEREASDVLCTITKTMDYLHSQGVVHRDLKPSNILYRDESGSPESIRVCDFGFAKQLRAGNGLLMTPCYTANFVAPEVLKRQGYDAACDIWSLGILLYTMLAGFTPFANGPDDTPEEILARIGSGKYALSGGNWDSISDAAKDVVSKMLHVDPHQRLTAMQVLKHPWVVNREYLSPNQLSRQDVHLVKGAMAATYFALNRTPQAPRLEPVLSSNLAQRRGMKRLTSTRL

PDGFRβ(h) = PDGFRβ(h) (Homo sapiens, UniProt P09619); test: Eurofins kinase assay
[1] = HCT116, full-length protein, read-out: Binding Affinities in HCT116 (EC50)
[2] = HCT 116 cells, 2 h, 10 µM, read-out: inhibition of probe binding

Sequence of BRAF (V600E) (P15056 whole entry V600E): as the sequence (P15056 whole entry) above, with V600E counted along it

O=C(Nc1cc(Nc2ncccc2-c2ncnc3[nH]cnc23)ccc1F)c1cc(C(F)(F)F)cc(C(F)(F)F)c1 [SJ-C1044, N-(5-(3-(9H-purin-6-yl)pyridin-2-ylamino)-2-fluorophenyl)-3,5-bis(trifluoromethyl)benzamide]
inhibition at 10 µM (CHK1(h)): -2% | inhibition at 10 µM (CaMKIV(h)): 2% | inhibition at 10 µM (Rsk1(r)): -12% | inhibition at 10 µM (BRAF (V600E)): 80% | inhibition at 10 µM (Met(h)): 13% | inhibition at 10 µM (PKCα(h)): -14% | EC50 (BRAF; [1]): 1300 nM | inhibition at 10 µM (BRAF; [2]): 86% | EC50 (CRAF; [1]): 1400 nM | inhibition at 10 µM (CRAF; [2]): 83% | EC50 (ARAF): > 10000 nM | inhibition at 10 µM (CSK(h)): 3% | inhibition at 10 µM (CK1δ(h)): 0% | inhibition at 10 µM (PI3Kinase(p110a/p85a)(h)): 23% | VEGF-stimulated endothelial tube formation (HUVECs): strong activity | VEGF-induced tube formation, compared to LY3009120 (HUVECs; 10 μM, 10 nmol/L VEGF): more effectively blocked | inhibition at 10 µM (MST2(h)): 9% | GI50 (HCT116 (KRAS G13D)): 160 nM | inhibition at 10 µM (Rsk3(h)): 4% | inhibition at 10 µM (PDGFRβ(h)): 11%
